A value given as a limit tells only on which side of the number the result lay.

As usually defined, the IC50 is the point on the concentration scale where inhibition reaches its midpoint.

Chain of KRas G12C (P01116 1-188 isoform P01116-2 G12C): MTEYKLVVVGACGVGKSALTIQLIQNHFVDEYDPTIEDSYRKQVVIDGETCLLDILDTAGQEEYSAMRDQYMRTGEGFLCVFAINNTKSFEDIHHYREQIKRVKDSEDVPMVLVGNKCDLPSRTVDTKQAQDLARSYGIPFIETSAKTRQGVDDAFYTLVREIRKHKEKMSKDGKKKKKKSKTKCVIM

For this test, the target named is KRas G12C (Homo sapiens, UniProt P01116, G12C). In words: Cellular inhibition of KRas G12C measured by Phospho-ERK in NCI-H358 cells. The format is cell-based. The following applies: pERK(Thr202/Tyr204) normalized with GAPDH, NCI-H358 cells, 3 hours; read-out: IC50. The method, then:
Cells were plated in poly-D-Lysine coated 96-well plates at a concentration of 50,000 cells/well and allowed to attach for 8-12 hours. Diluted compounds were then added at a final concentration of 0.5% DMSO. After 3 hours, the medium was removed, 150 μL of 4% formaldehyde was added and the plates were incubated for 20 minutes. The plates were washed with PBS, and permeabilized using 150 μL of ice cold 100% methanol for 10 minutes. Non-specific antibody binding to the plates was blocked using 100 μL Licor Blocking Buffer (Li-Cor Biotechnology, Lincoln Nebr.) for 1 hour at room temperature. Positive control samples and samples lacking cells were parallel processed with test samples as standards.
The amount Phospho-ERK was determined using an antibody specific for the phosphorylated form of ERK and compared to the amount of GAPDH. […] The plates were incubated for 2 hours at room temperature. The plates were washed with PBS+0.05% Tween 20.
Secondary antibodies used to visualize primary antibodies were added as follows: Anti-rabbit-680 diluted 1:1000 and Anti-mouse-800 diluted 1:1000 in Licor Block+0.05% Tween 20 and incubated for 1 hour at room temperature. The plates were washed with PBS+0.05% Tween 20. A 100 μL aliquot of PBS was added to each well and the plates were read on a LICOR AERIUS plate reader.
The pERK(Thr202/Tyr204) signal was normalized with the GAPDH signal and percent of DMSO control values were calculated. IC50 values were generated using a 4 parameter fit of the dose response curve. Key: “A”≥0.0001-≤1 μM; “B”>1 μM and ND=not determined.
`C=CC(=O)N1CCN(c2nc(OC[C@@H]3CCCN3C)nc3c2CCN(c2cccc(C)c2C(F)(F)F)C3)C[C@@H]1CC#N` [Example 364, 2-[(2S)-4-[2-[[(2S)-1-methylpyrrolidin-2-yl]methoxy]-7-[3-methyl-2-(trifluoromethyl)phenyl]-6,8-dihydro-5H-pyrido[3,4-d]pyrimidin-4-yl]-1-prop-2-enoyl-piperazin-2-yl]acetonitrile]: the IC50 was 0.0001 to 1 µM. To `C=CC(=O)N1CCN(c2nc(OCCCN3CCOCC3)nc3c2CCN(c2cc(O)cc4ccccc24)C3)C(CO)C1` (stereo not shown) [Example 168, 1-(3-(hydroxymethyl)-4-(7-(3-hydroxynaphthalen-1-yl)-2-(3-morpholinopropoxy)-5,6,7,8-tetrahydropyrido[3,4-d]pyrimidin-4-yl)piperazin-1-yl)prop-2-en-1-one] belongs over 1 µM; to `C=CC(=O)N1CCN(c2nc(OC[C@@H]3CCCN3C)nc3c2CCN(c2cccc(F)c2Cl)C3)C[C@@H]1CC#N` [Example 406, 2-((S)-1-acryloyl-4-(7-(2-chloro-3-fluorophenyl)-2-(((S)-1-methylpyrrolidin-2-yl)methoxy)-5,6,7,8-tetrahydropyrido[3,4-d]pyrimidin-4-yl)piperazin-2-yl)acetonitrile], 0.0001 to 1 µM; to `C=CC(=O)N1CCN(c2nc(OC[C@@H]3CCCN3CC3CC3)nc3c2CCN(c2cccc4ccccc24)C3)CC1CC#N` (stereo partly drawn) [Example 396, 2-(1-acryloyl-4-(2-(((S)-1-(cyclopropylmethyl)pyrrolidin-2-yl)methoxy)-7-(naphthalen-1-yl)-5,6,7,8-tetrahydropyrido[3,4-d]pyrimidin-4-yl)piperazin-2-yl)acetonitrile], 0.0001 to 1 µM.

For the compound `C=CC(=O)N1CCN(c2nc(OC[C@@H]3CCCN3C)nc3c2CCN(c2cccc4cccc(Br)c24)C3)C[C@@H]1CC#N` [Example 464, 2-((S)-1-acryloyl-4-(7-(8-bromonaphthalen-1-yl)-2-(((S)-1-methylpyrrolidin-2-yl)methoxy)-5,6,7,8-tetrahydropyrido[3,4-d]pyrimidin-4-yl)piperazin-2-yl)acetonitrile], the IC50 lay within 0.0001 to 1 µM. Then `C=C(F)C(=O)N1CCN(c2ncnc3c2CCN(c2cccc4ccccc24)C3)C[C@@H]1CC#N` [Example 610, (S)-2-(1-(2-fluoroacryloyl)-4-(7-(naphthalen-1-yl)-5,6,7,8-tetrahydropyrido[3,4-d]pyrimidin-4-yl)piperazin-2-yl)acetonitrile], with over 1 µM; and `C=CC(=O)N1CCN(c2nc(OC[C@H]3CCCN3C)nc3c2CCN(c2cc(O)cc4ccccc24)C3)CC1CC#N` (stereo partly drawn) [Example 178, 2-[4-[7-(3-hydroxy-1-naphthyl)-2-[[(2R)-1-methylpyrrolidin-2-yl]methoxy]-6,8-dihydro-5H-pyrido[3,4-d]pyrimidin-4-yl]-1-prop-2-enoyl-piperazin-2-yl]acetonitrile], with 0.0001 to 1 µM.

For `C=CC(=O)N1CCN(c2nc(OC[C@H]3CN(C)CCO3)nc3c2CCN(c2cccc4cccc(Cl)c24)C3)C[C@@H]1CC#N` [Example 363, 2-[(2S)-4-[7-(8-chloro-1-naphthyl)-2-[[(2R)-4-methylmorpholin-2-yl]methoxy]-6,8-dihydro-5H-pyrido[3,4-d]pyrimidin-4-yl]-1-prop-2-enoyl-piperazin-2-yl]acetonitrile], the IC50 lay in the range of 0.0001 to 1 µM. Consider `C=CC(=O)N1C[C@H](C)N(c2nc(OC[C@@H]3CCCN3C)nc3c2CCN(c2cc(O)cc4ccccc24)C3)C[C@H]1C` [Example 336, 1-[(2R,5S)-4-[7-(3-hydroxy-1-naphthyl)-2-[[(2S)-1-methylpyrrolidin-2-yl]methoxy]-6,8-dihydro-5H-pyrido[3,4-d]pyrimidin-4-yl]-2,5-dimethyl-piperazin-1-yl]prop-2-en-1-one], for which the IC50 lay within 0.0001 to 1 µM. For `C=CC(=O)N1CCN(c2nc(OC[C@H]3COCCN3C)nc3c2CCN(c2cccc4ccccc24)C3)CC1CC#N` (stereo partly drawn) [Example 273, 2-(1-acryloyl-4-(2-(((R)-4-methylmorpholin-3-yl)methoxy)-7-(naphthalen-1-yl)-5,6,7,8-tetrahydropyrido[3,4-d]pyrimidin-4-yl)piperazin-2-yl)acetonitrile], the concentration for half-maximal inhibition (IC50) is over 1 µM. Then `C=CC(=O)N1CCN(c2nc(OCC3CCN(CCOC)C3)nc3c2CCN(c2cc(O)cc4ccccc24)C3)CC1` (stereo not shown) [Example 103, 1-(4-(7-(3-hydroxynaphthalen-1-yl)-2-((1-(2-methoxyethyl)pyrrolidin-3-yl)methoxy)-5,6,7,8-tetrahydropyrido[3,4-d]pyrimidin-4-yl)piperazin-1-yl)prop-2-en-1-one], with 0.0001 to 1 µM; and `C=CC(=O)N1CCN(c2nc(OC[C@@H]3[C@H](F)CCN3C)nc3c2CCN(c2cccc4ccccc24)C3)C[C@@H]1CC#N` [Example 440, 2-((S)-1-acryloyl-4-(2-(((2R,3R)-3-fluoro-1-methylpyrrolidin-2-yl)methoxy)-7-(naphthalen-1-yl)-5,6,7,8-tetrahydropyrido[3,4-d]pyrimidin-4-yl)piperazin-2-yl)acetonitrile], with 0.0001 to 1 µM; and `C=CC(=O)N1CCN(c2nc(O[C@H](C)CN(C)C)nc3c2CCN(c2c(C)ccc4[nH]ncc24)C3)CC1` [Example 162, 1-[4-[2-[(1R)-2-(dimethylamino)-1-methyl-ethoxy]-7-(5-methyl-1H-indazol-4-yl)-6,8-dihydro-5H-pyrido[3,4-d]pyrimidin-4-yl]piperazin-1-yl]prop-2-en-1-one], with over 1 µM. `C/C=C/C(=O)N1CCN(c2nc(OC[C@@H]3CCCN3C)nc3c2CCN(c2cc(O)cc4ccccc24)C3)CC1` [Example 198, (S,E)-1-(4-(7-(3-hydroxynaphthalen-1-yl)-2-((1-methylpyrrolidin-2-yl)methoxy)-5,6,7,8-tetrahydropyrido[3,4-d]pyrimidin-4-yl)piperazin-1-yl)but-2-en-1-one]: the IC50 was over 1 µM. For the compound `COC/C=C/C(=O)N1CCN(c2nc(OC[C@@H]3CCCN3C)nc3c2CCN(c2cccc(C)c2C)C3)C[C@@H]1CC#N` [Example 489, 2-((S)-4-(7-(2,3-dimethylphenyl)-2-(((S)-1-methylpyrrolidin-2-yl)methoxy)-5,6,7,8-tetrahydropyrido[3,4-d]pyrimidin-4-yl)-1-((E)-4-methoxybut-2-enoyl)piperazin-2-yl)acetonitrile], the half-inhibitory concentration (IC50) lay within 0.0001 to 1 µM.

On to `C=CC(=O)N1CCN(c2nc(OCC(O)CN3CCOCC3)nc3c2CCN(c2cc(O)cc4ccccc24)C3)CC1` (stereo not shown) [Example 123, 1-(4-(2-(2-hydroxy-3-morpholinopropoxy)-7-(3-hydroxynaphthalen-1-yl)-5,6,7,8-tetrahydropyrido[3,4-d]pyrimidin-4-yl)piperazin-1-yl)prop-2-en-1-one], for which the IC50 was over 1 µM.

In the case of `C=CC(=O)N1CCN(c2nc(OC[C@@H]3CCCN3C)nc3c2CCN(c2cccc4cccc(F)c24)C3)C[C@@H]1CC#N` [Example 338], the IC50 is 0.0001 to 1 µM.

Take `C=CC(=O)N1CCN(c2nc(N3CCCC3)nc3c2CCN(c2cc(O)cc4ccccc24)C3)CC1` [Example 119, 1-(4-(7-(3-hydroxynaphthalen-1-yl)-2-(pyrrolidin-1-yl)-5,6,7,8-tetrahydropyrido[3,4-d]pyrimidin-4-yl)piperazin-1-yl)prop-2-en-1-one]: the IC50 is over 1 µM. To `C=CC(=O)N1CCN(c2nc(OC[C@@H](O)CN3CCOCC3)nc3c2CCN(c2cc(O)cc4ccccc24)C3)CC1` (single isomer, unassigned) [Example 216] belongs over 1 µM; to `C=CC(=O)N1CCN(c2nc(OC[C@@H]3CCCC(=O)N3)nc3c2CCN(c2cc(O)cc4ccccc24)C3)CC1` (single isomer, unassigned) [Example 61], over 1 µM.

Take `CCN1CCC[C@H]1COc1nc2c(c(N3CCN(C(=O)/C=C/CN(C)C)[C@@H](CC#N)C3)n1)CCN(c1cccc3ccccc13)C2` [Example 401, 2-((S)-1-((E)-4-(dimethylamino)but-2-enoyl)-4-(2-(((S)-1-ethylpyrrolidin-2-yl)methoxy)-7-(naphthalen-1-yl)-5,6,7,8-tetrahydropyrido[3,4-d]pyrimidin-4-yl)piperazin-2-yl)acetonitrile]: the IC50 was in the range of 0.0001 to 1 µM.

`C=CC(=O)N1CCN(c2nc(OC[C@@H]3CCCN3C)nc3c2CCN(c2cccc(Cl)c2CC)C3)C[C@@H]1CC#N` [Example 337, 2-[(2S)-4-[7-(3-chloro-2-ethyl-phenyl)-2-[[(2S)-1-methylpyrrolidin-2-yl]methoxy]-6,8-dihydro-5H-pyrido[3,4-d]pyrimidin-4-yl]-1-prop-2-enoyl-piperazin-2-yl]acetonitrile]: the IC50 was in the range of 0.0001 to 1 µM.

On to `C=CC(=O)N1CCN(c2nc(OC[C@@H]3CCCN3C)nc3c2CCN(c2cccc4ccc(F)cc24)C3)CC1CC#N` (stereo partly shown) [Example 302], for which the IC50 was in the range of 0.0001 to 1 µM.

With `C=CC(=O)N1CCN(c2nc(OC[C@@H]3CCCN3C)nc3c2CCN(c2cc(O)cc4ccccc24)C3)C[C@@H]1CC#N` [Example 317], the IC50 is 0.0001 to 1 µM.

On to `C=CC(=O)N1CCN(c2nc(OC[C@@H]3CCCN3C)nc3c2CCN(c2cccc4ccn(C)c24)C3)C[C@@H]1CC#N` [Example 436, 2-((S)-1-acryloyl-4-(7-(1-methyl-1H-indol-7-yl)-2-(((S)-1-methylpyrrolidin-2-yl)methoxy)-5,6,7,8-tetrahydropyrido[3,4-d]pyrimidin-4-yl)piperazin-2-yl)acetonitrile], for which the half-maximal inhibitory concentration (IC50) lay in the range of 0.0001 to 1 µM.

(Values after patent publication US10689377B2 (Mirati Therapeutics, Inc., priority 2017, dated 2020).)
